Test results from the supplement of paper PMC6045584.
± gives the standard deviation of the averaged measurements.

Experiments:
BI-2536 = compound: CC[C@@H]1C(=O)N(C)c2cnc(Nc3ccc(C(=O)NC4CCN(C)CC4)cc3OC)nc2N1C1CCCC1 [BI-2536]; experiment: surviving fraction relative to DMSO-only wells; higher = less growth inhibition; conditions: exposure time: 5 days
In short: (§1)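 Continuous five-day exposure to inhibitors at 0.5, 1, 5, 10, 50, 100, 500 and 1000 nM started 24 hours after log-phase tumour cell lines were seeded at 250–500 cells per well in 384-well plates. Luminescence was read after 10 minutes at room temperature. Viability is given as surviving fraction, meaning CellTiter-Glo luminescence normalised to the median of DMSO-only wells.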

MDV3100 = compound: CNC(=O)c1ccc(N2C(=S)N(c3ccc(C#N)c(C(F)(F)F)c3)C(=O)C2(C)C)cc1F [MDV3100]; experiment: as above; conditions: exposure time: 5 days
In short: as §1

Test System	surviving fraction (BI-2536; 0.5 nM)	surviving fraction (BI-2536; 1 nM)	surviving fraction (BI-2536; 5 nM)	surviving fraction (BI-2536; 10 nM)	surviving fraction (BI-2536; 50 nM)	surviving fraction (BI-2536; 100 nM)	surviving fraction (BI-2536; 500 nM)	surviving fraction (BI-2536; 1000 nM)	surviving fraction (MDV3100; 0.5 nM)	surviving fraction (MDV3100; 1 nM)	surviving fraction (MDV3100; 5 nM)	surviving fraction (MDV3100; 10 nM)	surviving fraction (MDV3100; 50 nM)	surviving fraction (MDV3100; 100 nM)	surviving fraction (MDV3100; 500 nM)	surviving fraction (MDV3100; 1000 nM)
H23 LUNG	1.09 ± 0.05	1.05 ± 0.048	0.991 ± 0.065	0.446 ± 0.016	0.272 ± 0.015	0.213 ± 0.015	0.16 ± 0.014	0.142 ± 0.0076	0.978 ± 0.013	0.95 ± 0.0056	0.944 ± 0.03	0.942 ± 0.011	0.954 ± 0.026	0.9877 ± 0.0021	0.93 ± 0.034	0.891 ± 0.02
CME SYNOVIAL	1.02 ± 0.077	0.988 ± 0.11	0.683 ± 0.18	0.378 ± 0.031	0.278 ± 0.023	0.237 ± 0.01	0.259 ± 0.004	0.279 ± 0.011	1.2 ± 0.075	0.852 ± 0.11	1.09 ± 0.089	0.18 ± 0.044	1.22 ± 0.053	1.09 ± 0.13	1.16 ± 0.1	0.451 ± 0.068
CAL51 BREAST	0.966 ± 0.057	0.87 ± 0.062	0.0793 ± 0.0041	0.0425 ± 0.0026	0.0333 ± 0.0013	0.0258 ± 0.0033	0.0175 ± 0.00087	0.0207 ± 0.00076	0.969 ± 0.025	0.944 ± 0.014	0.985 ± 0.016	0.976 ± 0.013	0.984 ± 0.029	1.05 ± 0.042	0.978 ± 0.11	0.979 ± 0.082
MHM BONE	1.02 ± 0.021	0.993 ± 0.017	1.03 ± 0.023	0.831 ± 0.058	0.404 ± 0.013	0.327 ± 0.026	0.248 ± 0.0076	0.258 ± 0.015	1 ± 0.039	1 ± 0.054	1.01 ± 0.025	1.01 ± 0.039	1.02 ± 0.02	1.01 ± 0.029	0.973 ± 0.012	0.952 ± 0.0046
MDAMB436 BREAST	0.841 ± 0.027	0.649 ± 0.065	0.4 ± 0.048	0.27 ± 0.0028	0.331 ± 0.017	0.379 ± 0.032	0.394 ± 0.027	0.38 ± 0.04	0.965 ± 0.086	0.884 ± 0.076	0.9783 ± 0.0076	0.95 ± 0.024	0.999 ± 0.1	0.9082 ± 0.0022	0.925 ± 0.083	0.86 ± 0.036
HSSYII SYNOVIAL	0.998 ± 0.053	0.944 ± 0.04	0.102 ± 0.023	0.0418 ± 0.0018	0.045 ± 0.0054	0.0367 ± 0.001	0.0423 ± 0.0025	0.0472 ± 0.00058	0.881 ± 0.042	0.848 ± 0.052	0.903 ± 0.022	0.545 ± 0.034	0.908 ± 0.028	0.9 ± 0.066	0.949 ± 0.032	0.721 ± 0.01
HUO3N1 BONE	0.991 ± 0.0085	0.994 ± 0.071	0.6 ± 0.1	0.242 ± 0.035	0.211 ± 0.0099	0.204 ± 0.022	0.265 ± 0.014	0.303 ± 0.016	1.01 ± 0.018	0.989 ± 0.025	1.01 ± 0.044	1.03 ± 0.044	1.06 ± 0.054	1.02 ± 0.041	1.01 ± 0.069	1.01 ± 0.019
